{"source": "patent US20160030476A1", "about": "“Compositions, Methods And Devices For Promoting Wound Healing And Reducing Infection” (IASIS MOLECULAR SCIENCES, priority 2013, published 2016)", "experiment_in_all_cases": "Therapeutic index (IC50 fibroblasts / MIC90 in broth)", "key": {"[1]": {"tested_on": "multi-drug resistant Klebsiella pneumonia (Kleb)", "type": "cell-based", "experimental": "(§1) The OD600 nm levels were monitored until OD600 nm of untreated control reached an OD600 nm of approximately 1.0.\n(§2) Growth and Viability assays (5,000 and 10,000 cells/well respectively) were set up with human neonatal fibroblasts in sterile tissue culture treated 96 well plates in DMEM (Invitrogen #11995) supplemented with 10% fetal calf serum (Invitrogen #10437-028) 1% Antibiotic-Antimycotic (Invitrogen #15240-062). (Incubator set at 37 C and 5% CO2).\n(§3) 10 μl of prepared MTS reagent (Promega # G5430) was added to the wells and absorbance at 490 nm was read once color has stabilized (1-4 hours).\n(§4) The therapeutic index was calculated as the IC50/MIC90."}, "MRSA": {"tested_on": "MRSA", "type": "cell-based, Staphylococcus aureus", "experimental": "as §1, §2, §3, §4"}, "[2]": {"tested_on": "multi-drug resistant Pseudomonas aeruginosa (Pseudo)", "type": "cell-based", "experimental": "as §1, §2, §3, §4"}, "[3]": {"tested_on": "multi-drug resistant Acinetobacter baumannii (AcBc)", "type": "cell-based", "experimental": "as §1, §2, §3, §4"}}}
{"compound": "N[C@@H](CCC(=O)N[C@@H](CS)C(=O)NCC(=O)O)C(=O)O.[Ag]", "note": "[GSH-Ag, glutathione silver]", "values": [{"measurement": "Kleb T.I.", "setting": "[1]", "value": 1.4}, {"measurement": "MRSA T.I.", "setting": "MRSA", "value": 1.5}, {"measurement": "Pseudo T.I.", "setting": "[2]", "value": 2.9}, {"measurement": "AcBc T.I.", "setting": "[3]", "value": 2.9}]}
